Experimental data from US7833785B2, “Method for chemical dissociation of cells from physical surfaces” (priority 2004, dated 2010).
Structures can show the parent of a compound that is named as a salt.

What was measured:
mouse neurospheres [1] = test: Different acidic neutralizing solutions after NaOH dissociation of mouse neurospheres; trypan blue exclusion, serial subculture; details: for Average Viable Cell Conc.: NaOH dissociation, acid as neutralizing solution; for Average Viable Cell Conc. / Average Cell Viability: n=3; for Average Cell Viability: trypan blue exclusion
Description: (§6) The viable cell concentration, viabilities, and fold increase in number of viable cells for mouse neurospheres exposed to different acidic neutralizing solutions following chemical dissociation. The aggregates were dissociated into a single cell suspension using an NaOH based dissociation solution. Acidic neutralizing solutions generated using a variety of acids (listed in table) were then added to counteract the high pH of the dissociation medium. Cell counts and viabilities were determined by trypan blue exclusion. Cells were serially subcultured for 4 passages in 25 cm^2 tissue culture flasks containing 5 mL of PPRF-m4 medium. The flasks were maintained in a humidified 37° C. incubator containing 5% CO2 (Average values, n=3).
(§7) All of the experiments conducted to test the effect of different neutralizing solutions employed an NaOH based dissociation medium to dissociate the cells.
(§8) Passage 3 mouse neurospheres originally procured from the striata of 14 day old embryonic mice were thawed and passaged twice (passage 5) in PPRF-m4 medium. These neuropsheres samples were previously dissociated by mechanical dissociation at each passage prior to being used for the experiments described here. Passage 5 mouse neurospheres were isolated and centrifuged (10 minutes, 140 g) to form a cell pellet in a 15 mL centrifuge tube. The supernatant was completely removed. The aggregates were then resuspended in 200 μL of fresh PPRF-m4 medium at room temperature by pipetting the cell pellet 5 times. 200 μL of an NaOH based alkaline dissociation medium was then added to the tube, and a stopwatch was used to time the procedure for 7 minutes. After 2 minutes and 5 minutes had elapsed, the cells were gently pipetted 5 times. After 7 minutes had elapsed, 200 μL of an acidic neutralizing medium was added to the mixture to decrease the pH, and the sample was gently pipetted 5 more times. […] The cell concentration and viability of the resulting cell suspension was determined using trypan blue exclusion, and the single cells were inoculated at 7.5×10^5 cells/mL into 25 cm^2 tissue culture flasks to determine if the neutralizing solution inhibited the cells from proliferating (Table 3). The cells were subsequently serially subcultured using the same neutralizing solution to which they had previously been exposed.

in vitro [2] = details: mouse, Average Cell Viability
Description: as §6, §7, §8

in vitro [3] = details: mouse, Average Cell Viability; remark: listed apart in the source
Description: (§1) A total of five different dissociation solutions were tested for their ability to detach and dissociate mouse embryonic stem cells. Each solution was made by adding a different base to a basal solution (1×PBS solution containing 10 mM EDTA).
(§2) A volume of 2.0 mL of the appropriate dissociation solution was then added to each 25 cm^2 tissue culture flask, and the flasks were placed in an incubator at 37° C. The flasks were rocked intermittently over a period of 22 minutes after which gentle pipetting was used to break up any remaining clumps of cells. The cell suspension was collected and added to a sterile 15 mL tube containing 5.0 mL of medium and then centrifuged for 5 minutes at 1000 rpm. […] After centrifugation, the supernatant was discarded and the pellet was resuspended in 1.0 mL of medium.

[4] = test system: mouse embryonic stem cells; test: Detachment and dissociation of mouse embryonic stem cells using different bases in PBS with 10 mM EDTA; trypan blue exclusion; details: for Average Viable Cell Conc.: base in 1×PBS with 10 mM EDTA; for Average Viable Cell Conc. / Average Cell Viability: n=3; for Fold Increase in number of viable cells: inoculated at 3.13×10^4 cells/mL; for Average Cell Viability: trypan blue exclusion
Description: as §1, §2

in vitro [5] = details: mouse, Average Cell Viability; remark: listed apart in the source
Description: (§3) Table 2. […] Following dissociation, the pH was reduced by using neutralizing solution generated using HCl.
(§4) In order to counteract the pH effect of the alkaline dissociation solutions on the cells, an appropriate quantity of acidic medium was added.
(§5) The supernatant was completely removed. […] A volume of 200 μL was added to those samples dissociated with sodium hydroxide, potassium hydroxide or sodium phosphate tribasic dodecahydrate. A volume of 300 μL was added to those samples dissociated using ammonium hydroxide. […] Following the addition of the acidic medium, the cell sample was gently pipetted 5 more times.

mouse neurospheres [6] = test: Dissociation of mouse neurospheres using different alkaline solutions; trypan blue exclusion, serial subculture; details: for Average Viable Cell Conc.: base in PPRF-m4, neutralized with HCl; for Average Viable Cell Conc. / Average Cell Viability: n=3; for Fold Increase in number of viable cells: inoculated at 0.75×10^5 cells/mL; for Average Cell Viability: trypan blue exclusion
Description: as §3, §4, §5

Structure (SMILES) | Fold Increase in number of viable cells (mouse neurospheres [1]; passage 1) | Average Viable Cell Conc. (mouse neurospheres [1]; passage 1) | Fold Increase in number of viable cells (mouse neurospheres [1]; passage 2) | Average Viable Cell Conc. (mouse neurospheres [1]; passage 2) | Fold Increase in number of viable cells (mouse neurospheres [1]; passage 3) | Average Viable Cell Conc. (mouse neurospheres [1]; passage 3) | Fold Increase in number of viable cells (mouse neurospheres [1]; passage 4) | Average Viable Cell Conc. (mouse neurospheres [1]; passage 4) | Average Viable Cell Conc. ([4]; passage 1) | Fold Increase in number of viable cells ([4]; passage 1) | Average Viable Cell Conc. ([4]; passage 2) | Fold Increase in number of viable cells ([4]; passage 2) | Average Viable Cell Conc. ([4]; passage 3) | Fold Increase in number of viable cells ([4]; passage 3) | Average Viable Cell Conc. ([4]; passage 4) | Fold Increase in number of viable cells ([4]; passage 4) | Average Viable Cell Conc. (mouse neurospheres [6]; passage 1) | Average Viable Cell Conc. (mouse neurospheres [6]; passage 2) | Average Viable Cell Conc. (mouse neurospheres [6]; passage 3) | Average Viable Cell Conc. (mouse neurospheres [6]; passage 4) | further results
CC(=O)O [Acetic Acid, acetic acid] | 13 | 9.6 10^5 cells/mL | 20 | 14.3 10^5 cells/mL | 10 | 7.2 10^5 cells/mL | 17 | 12.8 10^5 cells/mL |  |  |  |  |  |  |  |  |  |  |  |  | viability (in vitro [2]): 91%
N [Ammonium Hydroxide, ammonium hydroxide] |  |  |  |  |  |  |  |  | 4.1 10^5 cells/mL | 13 | 1.4 10^5 cells/mL | 4 | 2.7 10^5 cells/mL | 8 | 5.1 10^5 cells/mL | 16 | 6.2 10^5 cells/mL | 8.4 10^5 cells/mL | 10.5 10^5 cells/mL | 9.1 10^5 cells/mL | viability at 22 min, 9.9 mM (in vitro [3]): 84%; viability at 7 min, 23.8 mM (in vitro [5]): 91%; Fold Increase in number of viable cells (mouse neurospheres [6]; passage 1): 8; Fold Increase in number of viable cells (mouse neurospheres [6]; passage 2): 11; Fold Increase in number of viable cells (mouse neurospheres [6]; passage 3): 14; Fold Increase in number of viable cells (mouse neurospheres [6]; passage 4): 12
Cl [HCl, hydrochloric acid] | 14 | 10.9 10^5 cells/mL | 17 | 12.7 10^5 cells/mL | 12 | 9.0 10^5 cells/mL | 14 | 10.2 10^5 cells/mL |  |  |  |  |  |  |  |  |  |  |  |  | Average Cell Viability (mouse neurospheres [1]; passage 1): 91%; Average Cell Viability (mouse neurospheres [1]; passage 2): 92%; Average Cell Viability (mouse neurospheres [1]; passage 3): 92%; Average Cell Viability (mouse neurospheres [1]; passage 4): 89%
[K+].[OH-] [KOH, potassium hydroxide] |  |  |  |  |  |  |  |  | 4.3 10^5 cells/mL | 14 | 1.8 10^5 cells/mL | 6 | 3.2 10^5 cells/mL | 10 | 4.4 10^5 cells/mL | 14 | 7.1 10^5 cells/mL | 8.7 10^5 cells/mL | 13.9 10^5 cells/mL | 19.0 10^5 cells/mL | Average Cell Viability ([4]; passage 1): 89%; Average Cell Viability ([4]; passage 2): 86%; Average Cell Viability ([4]; passage 3): 81%; Average Cell Viability ([4]; passage 4): 81%; Fold Increase in number of viable cells (mouse neurospheres [6]; passage 1): 9.4; Average Cell Viability (mouse neurospheres [6]; passage 1): 81%; Fold Increase in number of viable cells (mouse neurospheres [6]; passage 2): 12; Average Cell Viability (mouse neurospheres [6]; passage 2): 85%; Fold Increase in number of viable cells (mouse neurospheres [6]; passage 3): 18; Average Cell Viability (mouse neurospheres [6]; passage 3): 9%; Fold Increase in number of viable cells (mouse neurospheres [6]; passage 4): 25; Average Cell Viability (mouse neurospheres [6]; passage 4): 93%
[Na+].[OH-] [NaOH, sodium hydroxide] |  |  |  |  |  |  |  |  | 3.6 10^5 cells/mL | 12 | 6.2 10^5 cells/mL | 20 | 7.5 10^5 cells/mL | 24 | 5.7 10^5 cells/mL | 18 | 8.7 10^5 cells/mL | 12.9 10^5 cells/mL | 8.8 10^5 cells/mL | 13.9 10^5 cells/mL | Fold Increase in number of viable cells (mouse neurospheres [6]; passage 1): 12; Fold Increase in number of viable cells (mouse neurospheres [6]; passage 2): 17; Fold Increase in number of viable cells (mouse neurospheres [6]; passage 3): 12; Fold Increase in number of viable cells (mouse neurospheres [6]; passage 4): 18
O=P(O)(O)O [Phosphoric Acid, phosphoric acid] | 15 | 11.5 10^5 cells/mL | 23 | 17.3 10^5 cells/mL | 6 | 4.2 10^5 cells/mL | 16 | 11.8 10^5 cells/mL |  |  |  |  |  |  |  |  |  |  |  |  | viability (in vitro [2]): 91%
O=C([O-])[O-].[Na+].[Na+] [Sodium Carbonate, sodium carbonate] |  |  |  |  |  |  |  |  | 3.7 10^5 cells/mL |  | 3.6 10^5 cells/mL |  | 7.7 10^5 cells/mL |  | 6.8 10^5 cells/mL |  | 7.7 10^5 cells/mL | 11.4 10^5 cells/mL | 11.1 10^5 cells/mL | 8.7 10^5 cells/mL | 
O.O.O.O.O.O.O.O.O.O.O.O.O=P([O-])([O-])[O-].[Na+].[Na+].[Na+] [Sodium Phosphate, sodium phosphate tribasic dodecahydrate] |  |  |  |  |  |  |  |  | 4.2 10^5 cells/mL | 14 | 2.0 10^5 cells/mL | 6 | 4.1 10^5 cells/mL | 13 | 6.7 10^5 cells/mL | 21 | 11.5 10^5 cells/mL | 7.3 10^5 cells/mL | 13.9 10^5 cells/mL | 10.2 10^5 cells/mL | Average Cell Viability ([4]; passage 1): 88%; Average Cell Viability ([4]; passage 2): 91%; Average Cell Viability ([4]; passage 3): 87%; Average Cell Viability ([4]; passage 4): 84%; Fold Increase in number of viable cells (mouse neurospheres [6]; passage 1): 15; Average Cell Viability (mouse neurospheres [6]; passage 1): 87%; Fold Increase in number of viable cells (mouse neurospheres [6]; passage 2): 10; Average Cell Viability (mouse neurospheres [6]; passage 2): 89%; Fold Increase in number of viable cells (mouse neurospheres [6]; passage 3): 18; Average Cell Viability (mouse neurospheres [6]; passage 3): 89%; Fold Increase in number of viable cells (mouse neurospheres [6]; passage 4): 14; Average Cell Viability (mouse neurospheres [6]; passage 4): 93%
O=S(=O)(O)O [Sulfuric Acid, sulfuric acid] | 14 | 10.5 10^5 cells/mL | 18 | 13.1 10^5 cells/mL | 8 | 6.1 10^5 cells/mL | 15 | 11.3 10^5 cells/mL |  |  |  |  |  |  |  |  |  |  |  |  | viability (in vitro [2]): 89%
